Results as given in ChEMBL document CHEMBL3600336, “Design and synthesis of silicon-containing fatty acid amide derivatives as novel peroxisome proliferator-activated receptor (PPAR) agonists” (Bioorg Med Chem Lett, 2015).
The source made the active and inactive calls. No cut-off for these calls is given here.

Assays:
Assay type in all cases: cell-based
[1] = molecular target: T1, Peroxisome proliferator-activated receptor gamma (Homo sapiens) (UniProt P37231); assay: Agonist activity at Gal4-tagged human PPARgamma expressed in HEK293 cells at 3 to 30 uM incubated for 16 to 20 hrs by luciferase and beta-galactosidase activity based reporter gene assay
T1 sequence (whole entry): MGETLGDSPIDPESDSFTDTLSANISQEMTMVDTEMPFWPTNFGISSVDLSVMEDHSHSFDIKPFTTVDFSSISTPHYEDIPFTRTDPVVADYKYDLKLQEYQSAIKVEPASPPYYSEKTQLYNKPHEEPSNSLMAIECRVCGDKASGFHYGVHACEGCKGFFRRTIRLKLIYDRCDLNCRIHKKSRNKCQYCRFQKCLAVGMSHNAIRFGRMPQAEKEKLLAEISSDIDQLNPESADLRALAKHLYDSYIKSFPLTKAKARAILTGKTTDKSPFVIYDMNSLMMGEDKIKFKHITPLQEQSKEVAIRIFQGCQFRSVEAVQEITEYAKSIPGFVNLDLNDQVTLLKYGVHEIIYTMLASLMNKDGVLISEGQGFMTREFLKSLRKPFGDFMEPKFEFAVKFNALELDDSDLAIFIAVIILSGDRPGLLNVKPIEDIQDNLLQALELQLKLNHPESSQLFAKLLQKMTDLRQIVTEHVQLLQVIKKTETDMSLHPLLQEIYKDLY

[2] = molecular target: T2, Peroxisome proliferator-activated receptor alpha (Homo sapiens) (UniProt Q07869); assay: Agonist activity at Gal4-tagged human PPARalpha expressed in HEK293 cells at 3 to 30 uM incubated for 16 to 20 hrs by luciferase and beta-galactosidase activity based reporter gene assay
T2 sequence (whole entry): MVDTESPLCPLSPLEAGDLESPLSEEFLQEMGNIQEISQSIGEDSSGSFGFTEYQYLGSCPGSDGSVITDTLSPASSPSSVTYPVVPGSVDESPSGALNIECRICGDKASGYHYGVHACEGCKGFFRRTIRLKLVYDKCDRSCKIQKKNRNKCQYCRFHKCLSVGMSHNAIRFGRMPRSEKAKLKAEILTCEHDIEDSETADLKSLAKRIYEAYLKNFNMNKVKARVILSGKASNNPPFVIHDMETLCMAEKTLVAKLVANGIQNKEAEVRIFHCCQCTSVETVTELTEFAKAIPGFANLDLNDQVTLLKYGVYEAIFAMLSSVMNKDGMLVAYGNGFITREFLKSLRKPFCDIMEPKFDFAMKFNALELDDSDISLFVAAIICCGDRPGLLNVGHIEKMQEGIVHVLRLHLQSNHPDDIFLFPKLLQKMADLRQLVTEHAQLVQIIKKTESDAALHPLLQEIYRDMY

[3] = molecular target: T3, Peroxisome proliferator-activated receptor delta (Homo sapiens) (UniProt Q03181); assay: Agonist activity at Gal4-tagged human PPARdelta expressed in HEK293 cells at 3 to 30 uM incubated for 16 to 20 hrs by luciferase and beta-galactosidase activity based reporter gene assay
T3 sequence (whole entry): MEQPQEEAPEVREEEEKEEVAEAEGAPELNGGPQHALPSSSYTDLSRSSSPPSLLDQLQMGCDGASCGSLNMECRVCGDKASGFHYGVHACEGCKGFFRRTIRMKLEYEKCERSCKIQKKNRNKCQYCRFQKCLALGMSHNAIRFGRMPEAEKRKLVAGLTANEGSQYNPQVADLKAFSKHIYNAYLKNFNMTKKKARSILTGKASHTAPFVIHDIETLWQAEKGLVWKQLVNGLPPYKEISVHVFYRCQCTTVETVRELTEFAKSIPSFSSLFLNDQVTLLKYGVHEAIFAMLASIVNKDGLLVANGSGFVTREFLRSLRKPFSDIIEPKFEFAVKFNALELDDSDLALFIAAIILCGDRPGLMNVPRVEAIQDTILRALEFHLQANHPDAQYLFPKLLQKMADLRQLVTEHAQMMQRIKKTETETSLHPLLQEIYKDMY

HEK293 = assay: Toxicity against HEK293 cells assessed as reduction in cell viability at 30 uM; conditions: human, hek293, 30 µM

Row | Structure (SMILES) | Activity [1] | Activity [2] | Activity [3] | Activity (HEK293)
1 | CCCCCCCCCCCCCCCCCC(=O)NCCO | inactive | inactive |  | 
2 | CCCCCCC[Si](CC)(CC)CCCCCCCC(=O)NCCO | inactive | inactive | Active | Toxic
3 | CCCCCCCC[Si](C)(C)CCCCCCCC(=O)NCCO | inactive | Active | Active | 
4 | CCCCCCCC[Si](CCCC)(CCCC)CCCCCCCC(=O)NCCO | inactive | inactive | inactive | 
5 | CCCCCCCC/C=C\CCCCCCCC(=O)NCCO |  | Active |  | 
6 | CCCCCCCC[Si](CC)(CC)CCCCCCC(=O)NCCO | inactive | inactive | inactive | 
7 | CCCCCCCC[Si](CC)(CC)CCCCCCCC(=O)NCCO | inactive | Active | Active | 
8 | CCCCCCCC[Si](CCC)(CCC)CCCCCCCC(=O)NCCO | inactive | Active | Active | 
